“Also recorded” adds a separate entry of the source.
How the values were obtained:
[1] = system: Mouse bone marrow Lin-Sca-1+Kit+CD34-Flk2-cells; assay: Proliferation of mouse HSCs; type: cell-based; settings: serum-free Stemspan, 10 ng/ml SCF, 20 ng/ml TPO, cell numbers after 6 days
Procedure: (§1) Mouse BM Lin-Sca-1+Kit+CD34-Flk2-cells were cultured in serum-free Stemspan medium with 10 ng/ml SCF, 20 ng/ml TPO, and indicated concentrations of SA. Cell numbers were counted after 6 days. FIG. 2B The effects of SA on the ex vivo expansion of mouse CD45.1 Percent repopulation of C57BL/6 bone marrow HSCs at 0, 10 nM, 100 nM, and 1 μM for 8 days, measured at 3 weeks, 7 weeks, and 16 weeks post-transplantation. The repopulation of donor mouse CD45.1 HSCs was determined by transplantation into lethally irradiated (1000 rad) CD45.2 C57BL/6 mice. Ten thousand CD45.2 total bone marrow cells were co-transplanted as competitors. n=5. […] The repopulation of human hematopoietic stem cells was determined by transplantation into sublethally irradiated (250 rad) NOD/SCID IL2R gamma^−/− (NSG) mice. n=7.
Mouse bone marrow Lin-Sca-1+Kit+CD34-Flk2-cells were cultured in serum-free Stemspan medium with 10 ng/ml SCF, 20 ng/ml TPO, and indicated concentrations of SA. Cell numbers were counted after 6 days.

[2] = system: Bone marrow CD45.1 Lin-Sca-1+Kit+Flk2-CD34- cells; assay: Ex vivo expansion of mouse bone marrow HSCs, repopulation after transplantation; type: cell-based; settings: cultured 8 days, determined by bone marrow transplantation
Procedure: as §1
Bone marrow CD45.1 Lin^−Sca-1^+Kit^+Flk2^−CD34^− cells were isolated from 8-12 week old CD45.1 C57BL/6 mice and were plated into wells of a U-bottom 96-well plate (3799; Corning). StemSpan serum-free medium (StemCell Technologies) supplemented with 10 μg/mL heparin (Sigma), 10 ng/mL mouse SCF (R&D Systems), 20 ng/mL mouse TPO (R&D Systems), and 10 ng/mL human FGF-1 (Invitrogen), and indicated concentration of suberoylarginine was used. Cells were cultured at 37° C. in 5% CO2 and the normal level of O2 for 8 days. […]

[3] = system: human cord blood CD133+ cells; assay: Ex vivo expansion of human cord blood HSCs, repopulation in NSG mice; type: cell-based; settings: cord blood CD133+ cells cultured 11 days, 1 μM, 8 weeks post-transplantation
Procedure: as §1
Cryopreserved human cord blood CD133^+ cells were purchased from AllCells. All of cells were from pooled donors. Purities of CD133^+ cells as analyzed by flow cytometry were higher than 90%. After thawing, the cell viability tested by trypan blue exclusion was higher than 72%. […] Eight weeks after transplantation, bone marrow nucleated cells from transplanted animals were analyzed by flow cytometry for the presence of human cells. Total human hematopoietic cells were determined as CD45/71^+, and human myeloid cells as myeloid CD45/71^+CD15/66b^+.

[4] = system: Balb/c mice; assay: Mouse model of bone marrow failure after chemo- and radio-treatment; type: in vivo
Procedure: (§2) Balb/c mice were first treated with 100 mg/kg acetylphenylhydrazine and, after 24 hours, were irradiated with 2 Gy. Two days post radiation treatment, the mice were treated with 62.5 mg/kg cyclophosphamide (CY). This treatment is known to induce sublethal damage to HSCs and RBCs. Two days after the CY treatment, the mice were given daily intraperitoneal injections of SA for 4 to 14 days; a range of SA concentrations was evaluated. Blood counts were measured at days 0, 4, and 8. Additionally, bone marrow Lin^−Sca-1^+Kit^+CD34^−Flk2^− (LSKFC) cells that are enriched for HSCs and hematopoietic lineages were quantified at day 14.
as §2, with “The inventors tested the effect of SA on HSCs and RBCs in a mouse bone marrow failure model after chemo- and radio-therapy. In this model, Balb/c mice” for “Balb/c mice”, “for HSCs (Christensen and Weissman, 2001) and hematopoietic” for “for HSCs and hematopoietic”

[5] = system: Balb/c mice; assay: Toxicity in mice, daily injections for 28 days; type: in vivo, mouse; settings: for toxicity: 0.5 and 1.5 mg daily for four weeks (33- and 100-times the effective amount)
Procedure: In this experiment, 8-week-old Balb/c mice were given daily injections of SA at doses of 0, 0.5, and 1.5 mg per mouse for 28 days. The body weight and activities of mice were monitored daily.

[6] = Stability test in S9 extract; type: in vitro ADME, mouse; settings: 2 μM, murine S9, Phase I NADPH cofactors, 0-240 minutes
Procedure: (§3) SA (2 μM) was incubated with murine S9 (Lot KWB) and Phase I NADPH Regenerating System cofactors for 0-240 minutes. SA was quantified using a Qtrap 3200 mass spectrometer. n=3. (FIG. 7B) SA is stable in mouse plasma. 1 μl SA 2 mM DMSO stock was incubated with 1 ml ACD mouse plasma or saline making 2 μM SW125991 working solution. Vortext well and incubate in 37° C. water bath. At time point 0, 10, 30, 60, 120, 240, 1440 min, SA was quantified using a Qtrap 3200 mass spectrometer. n=3.
SA (2 mM in H2O stock, final concentration in mixture is 2 μM) was incubated with Murine S9 (Lot KWB) fraction and Phase I (NADPH Regenerating System) cofactors for 0-240 minutes. Reactions were quenched with 1 mL (1:1) of methanol containing 0.2% formic acid, and 100 ng/ml IS (IS final conc.=10 ng/ml). Samples were vortexed for 15 seconds, incubated at RT for 10 minutes and spun for 5 minutes at 2400 rpm. Supernatant (1 mL) was then transferred to an eppendorf tube and spun in a table top, chilled centrifuge for 5 minutes at 13.2K rpm. Supernatant (800 μl) was transferred to an HPLC vial (w/out insert). Analyzed by Qtrap 3200 mass spectrometer.

[7] = Stability test in plasma; type: in vitro ADME; settings: 2 μM, mouse plasma, 37° C., 0-1440 min
Procedure: as §3
1 μl of SA (2 mM DMSO stock) was incubated with 1 ml ACD mouse plasma or saline control to make 2 μM SW125991 working solution. Vortext well and incubate in 37° C. water bath. At time point 0, 10, 30, 60, 120, 240, 1440 min, 100 μl sample was crashed by 200 μl MeOH with IS benzylbenzamide at 15 ng/ml. Centrifuge twice at 13200 rpm for 5 min, and supernatant was injected into LCMS for analysis.

[8] = 0.5 and 1.5 mg per mouse daily for 28 days

N=C(N)NCCC[C@H](NC(=O)CCCCCCC(=O)O)C(=O)O [SA, suberoyl arginine]
proliferation of mouse HSCs [1]: promoted the proliferation; also recorded: promotes proliferation
ex vivo expansion of mouse HSCs [2]: supports the ex vivo expansion
ex vivo expansion of human HSCs [3]: supports the ex vivo expansion
increase of phenotypic bone marrow HSCs ([4]; 15 μg of SA per mouse (~0.7 mg/kg) per day for 14 days): ~40%
increase of hematocrit relative to animals not treated ([4]; day 8): 25-30%
increase of hemoglobin relative to animals not treated ([4]; day 8): 25-30%
increase of level of RBCs relative to animals not treated ([4]; day 8): 25-30%
stimulation of hematopoietic recovery by route ([4]; iv or intraperitoneal (ip) administration): works efficiently
effect on RBC recovery compared with EPO ([4]; same mouse model, SA 15 μg, EPO 120 U/kg): comparable to that of EPO
toxicity [5]: did not observe any detectable SA toxicity
toxicity ([5]; listed as subreoylarginine): no detectable toxicity
body weight [5, 8]: did not significantly alter
changes in behavior, activity, hematology, serum chemistry, or urinalysis parameters [5, 8]: did not observe any changes
histological damage to tissues/organs [5, 8]: no damage was observed
body weight ([5]; 0.5 and 1.5 mg per mouse daily for 28 days, listed as suberoylarginine): No significant change
metabolic stability in S9 liver fractions [6]: metabolically stable
stability in plasma [7]: metabolically stable

Reference: patent US11013704B2, “Compounds supports hematopoietic stem cells and red blood cells” (The Board of Regents of the University of Texas System, priority 2014, dated 2021)
